Results published in patent US20250177366A1, “COMPOSITIONS AND METHODS FOR ALLEVIATING PAIN AND REDUCING ADVERSIVENESS OF STIMULI” (UNIVERSITY OF WASHINGTON, priority 2021, published 2025).

Key:
Type in all cases: in vivo, Zebrafish (Danio rerio)
larval zebrafish [1] = assay: Thermal preference assay (28.5° C. vs 37.5° C.), non-sensitized; settings: for effect of co-applied drug on AS1-induced attraction to noxious heat / temperature choice, drug alone / effect of structural analog on temperature preference (time spent in the 28.5° C. zone): 28.5° C. vs 37.5° C.; for effect of co-applied drug on AS1-induced attraction to noxious heat: drug + 5 μM AS1; for temperature choice, drug alone: without AS1; for Reverses 28.5° C. Choice?: temperature preference 28.5° C. vs 37.5° C., larval zebrafish; for effect of structural analog on temperature preference (time spent in the 28.5° C. zone): at the tested concentration
Protocol: Thermal preference assay. […] Once an entire plate was loaded with fish, the appropriate incubation solution was added. […] Following incubation in all experiments, the choice testing plate was transported to a dual solid-state heat/cool plate (AHP-1200° C. P; Teca) and centered such that half of each arena was positioned over each side of the heat/cool plate. […] Locomotor behavior was recorded using a Canon high-definition video camcorder suspended at a fixed position above the choice testing plate. Each trial was four minutes in duration.
For single-incubation assays (e.g. testing single chemicals), larval zebrafish were caught in 100 μL E2 media and 100 μL of the control (2% DMSO) or test chemical at 2× concentration was added to each well to achieve the final desired concentration. […] The final DMSO concentration in all solutions was 1%.

larval zebrafish [2] = assay: AITC aversion assay (chemical attraction/aversion, AITC-infused agarose); settings: SCH 1-20 μM + 5 μM AS1
Text: Whether the effects of AS1 extended beyond noxious temperature sensation or could also impact other somatosensory modalities was next explored. To accomplish this, a chemical attraction/aversion assay where a thin layer of agarose was deposited along the edges of a square arena (Jordi et al., Sci. Adv. 2018; 4:1-15) were adapted. Along one wall, the agarose contained the chemical to be tested, while the other three walls were lined with control agarose. It was anticipated that a chemical gradient would be established as chemical diffused from the agarose into the surrounding water. Larvae were pre-incubated in either vehicle or AS1 and then added to the arena and the distance of each larva from the chemical-infused agarose was measured. In control experiments where all four walls of the arena were lined with agarose only, AS1 and vehicle-treated larvae were dispersed evenly throughout the arena (FIG. 3). […] When the nociceptive chemical AITC (100 mM, 10,000× maximal effective dose) was tested, vehicle-treated larvae swam away from the AITC source.
Chemical attraction/aversion assays. The agarose attraction/aversion assay was adapted from previously described experiments (Jordi et al., Sci. Adv. 2018; 4:1-15). For the AITC aversion assay, AITC and DMSO were added to molten 0.8% agarose to achieve a final concentration of 100 mM AITC and 2% DMSO. For the AS1 attraction/aversion assay, AS1 and DMSO were added to 0.8% molten agar to achieve final concentrations of 50 mM and 2%, respectively. To construct the test chambers, the lids of 10×10 cm square petri dishes (insert cat #and company) were lined on four sides with either the test (chemical-containing) or plain agarose (300 μL per side) and allowed to solidify. For all experiments, 30-40 randomly selected 6 dpf zebrafish were caught with a 10 mL pipette pump (Bel-Air Products, cat #: 13683C) equipped with a glass wide-bored Pasteur pipet (Fisher Scientific, cat #: 22-037-540) and deposited into a standard 10 cm diameter petri dish (Fisher Scientific, cat #: 07-202-031). As much E2 media as possible was carefully removed using the same pipette. For single incubation experiments, 30 mL of 1× solutions of the control or test chemical was added to each petri dish, and fish were incubated for 10 minutes at 28.5° C. For double incubation experiments, 15 mL of 1× solutions containing control (DMSO) or test chemicals was added to the larvae-containing petri dish. Following a ten minute incubation, 15 mL of the second incubation solution (1× control or test chemical +/−2× AS1) was added to the petri dish, and the fish were incubated for a second ten minute block. The final concentration of DMSO in all solutions was 1%. In all double-incubation experiments, the final concentration of AS1 was 5 μM unless otherwise noted. After completion of the last incubation period, the contents of each petri dish were poured into separate agarose-lined square dishes. Swimming behavior was immediately recorded for 20 minutes using the same high-definition camcorder in the thermal preference assays.

larval zebrafish [3] = assay: Light/dark preference (phototaxis) assay; settings: SCH 10-20 μM + 2.5 μM AS1
Protocol: Following this, whether the effects of AS1 were restricted to somatosensation or were generalizable to other aversive stimuli were tested. Thus, the effects of AS1 on light/dark preference were tested. Zebrafish larvae prefer white light environments to dark environments and this preference is inhibited by anxiolytics, analagous to studies in rodents (Lau et al., Proc. Natl. Acad. Sci. U.S.A 2011; 108:2581-2586; Burgess et al., Curr. Biol. 2010; 20:381-386). To measure light/dark preference, larval zebrafish were placed in a square arena and given the choice between a bright white light and total darkness, and the number of larvae on each side was quantified at 30 second intervals. Five 4-minute trials were performed, where the light and dark sides of the arena were reversed between trials. […] Given the precise control over stimulus luminosity in this assay, the effects of altering the intensity of the dark stimulus were explored next. In this gradient version of the phototaxis assay, larval zebrafish were given the choice between a bright white environment and one of six potential shades of darkness, ranging from light gray to solid black. […] This implies that the valence of non-painful noxious stimuli is precisely encoded in an intensity-dependent manner, and that AS1 exerts its effects in proportion to the intensity of the stimulus.
Light/dark preference (phototaxis) assay. In the light/dark preference assay, randomly-selected 6 dpf larval zebrafish (N of 30 to 40) were carefully pipetted onto a 10 cm square petri dish using a 10 mL pipette pump equipped with a glass wide-bored Pasteur pipet. As much E2 media as possible was carefully removed using the same pipet. For single incubation experiments, 30 mL of 1× solutions of the control or test chemical was added to each petri dish, and fish were incubated for 10 minutes at 28.5° C. For double incubation experiments, 15 mL of 1× solutions containing control (DMSO) or test chemicals was added to the larvae-containing petri dish. Following a ten-minute incubation period, 15 mL of the second incubation solution (1× control or test chemical +/−2× AS1) was added to the petri dish, and the fish were incubated for a second ten minute block. The final concentration of DMSO in all solutions was 1%. In all double-incubation experiments, the final concentration of AS1 was 2.5 μM. These petri dishes were then positioned over a horizontally-oriented computer monitor displaying a PowerPoint presentation. For standard light/dark preference assays, a blank white slide was initially presented for one minute, after which the presentation would automatically advance to a slide in which half of the display was black. The petri dish with larvae was positioned such that exactly half was directly over the dark side, and the other half was directly over the light side. After four minutes, the presentation automatically advanced to a slide in which the black and white halves switched places. A total of five four-minute trials, with the dark/light halves automatically switching position between trials, were recorded. For the gradient phototaxis assay, experiments were performed identically, except that the “dark” half of the powerpoint presentation was one of six shades of gray.
In all experiments, an initial still frame of video was taken during the minute where the blank slide was presented in order to quantify the total number of fish in the experiment. Following this, still frames were taken at 30 second intervals for each trial ([…]), and the number of fish present in the light half of the arena were counted. To generate the graphs that looked at swimming patterns over time in a trial (e.g., FIG. 3D), the average percentage of fish in the light at each time point (T=0, T=30, etc.) was calculated across all five trials. […]

| SMILES | temperature choice, drug alone (larval zebrafish [1]) | Reverses 28.5° C. Choice? (larval zebrafish [1]) | effect of structural analog on temperature preference (time spent in the 28.5° C. zone) (larval zebrafish [1]) | further results |
| --- | --- | --- | --- | --- |
| CN1CCN(CCc2ccc(Cl)c(Cl)c2)CC1 [BD1063] | significantly chose the 28.5 °C side |  |  | effect of co-applied drug on AS1-induced attraction to noxious heat (larval zebrafish [1]): At no concentration did BD1063 influence AS1-induced attraction towards noxious heat |
| CC(N)Cc1c[nH]c2ccc(OCc3cccs3)cc12 (centres unmarked) [BW723C86] | significantly chose the 28.5 °C side |  |  | effect of co-applied drug on AS1-induced attraction to noxious heat (larval zebrafish [1]): At no concentration did BW723C86 influence AS1-induced attraction towards noxious heat |
| O=C1CC2(CCCC2)CC(=O)N1CCCCN1CCN(c2ncccn2)CC1 [Buspirone, buspirone] | had no effect upon thermal preference |  |  |  |
| CC(C)c1ccc(NC(=O)c2cccnc2)cc1 [Compound 5538018, N-(4-isopropylphenyl)nicotinamide] |  | No |  |  |
| CC(C)c1ccc(C(=O)Nc2cccnc2)cc1 [Compound 7301738, 4-isopropyl-N-3-pyridinylbenzamide] |  | No | only had a small, if still significant, effect on temperature preference |  |
| Cc1ccc(C(=O)Nc2ccncc2)c(C)c1 [Compound 7755382, 2,4-dimethyl-N-4-pyridinylbenzamide] |  | No | prevented an analogue from replicating the effects of AS1 |  |
| CCc1ccc(C(=O)Nc2cccnc2)cc1 [Compound 7947669, 4-ethyl-N-3-pyridinylbenzamide] |  | No |  |  |
| Cc1cc(C)c(C(=O)Nc2ccncc2)c(C)c1 [Compound 9047736, 2,4,6-trimethyl-N-4-pyridinylbenzamide] |  | No | prevented an analogue from replicating the effects of AS1 |  |
| CCCc1ccc(C(=O)Nc2ccncc2)cc1 [Compound 9089110, 4-propyl-N-4-pyridinylbenzamide] |  | No preference for either temperature | abolished preference for either side | effect of structural analog on temperature preference (time spent in the 28.5° C. zone) (larval zebrafish [1]; listed as Analog 9089110): completely ablated aversion |
| Cc1noc(C)c1C(=O)Nc1ccc(C(C)C)cc1 [Compound 9089180, N-(4-isopropylphenyl)-3,5-dimethyl-4-isoxazolecarboxamide] |  | No | had a significant (if small) influence upon temperature choice behavior |  |
| CCCc1ccc(C(=O)Nc2cccnc2)cc1 [Compound 9090934, 4-propyl-N-3-pyridinylbenzamide] |  | No | has no effect upon temperature preference |  |
| CCCCc1ccc(C(=O)Nc2ccncc2)cc1 [Compound 9098532, 4-butyl-N-4-pyridinylbenzamide] |  | No | prevented an analogue from replicating the effects of AS1 |  |
| COc1ccc(CC2NCCc3c2[nH]c2ccc(C)cc32)c(Cl)c1OC (centres unmarked) [LY266097] | significantly chose the 28.5 °C side |  |  | effect of co-applied drug on AS1-induced attraction to noxious heat (larval zebrafish [1]): At no concentration did LY266097 influence AS1-induced attraction towards noxious heat |
| COc1ccc(Br)cc1CCc1c(F)cccc1C1=NCCN1 [ML00253764] | slightly potentiate preference towards the 28.5 °C zone |  |  | effect of co-applied drug on AS1-induced attraction to noxious heat (larval zebrafish [1]): At no concentration did ML00253764 reduce AS1-induced attraction towards noxious heat |
| O=C(OCCN1CCOCC1)C1(c2ccccc2)CCCCC1 [PRE-084] | potentiating preference for the 28.5 °C zone |  |  | effect of co-applied drug on AS1-induced attraction to noxious heat (larval zebrafish [1]): At no concentration did PRE-084 influence AS1-induced attraction towards noxious heat |
| CN1CCc2cc(Cl)c(O)cc2[C@@H](c2ccccc2)C1 [SCH23390] |  |  |  | concentrations that partially attenuate AS1-induced attraction to AITC (larval zebrafish [2]): ≥ 5 µM; concentration abolishing AS1-induced preference for the dark entirely (larval zebrafish [3]): 15 µM |
| Cn1c(=O)c2c(ncn2C)n(C)c1=O [caffeine] | did not affect thermal preference for 28.5 °C |  |  |  |
| CN1C(=O)CN=C(c2ccccc2)c2cc(Cl)ccc21 [diazepam] | potentiated preference for 28.5 °C |  |  |  |
